{"source": "patent US6649654B1", "about": "“Methods for identifying and using IKK inhibitors” (The Regents of the University of California, priority 1999, dated 2003)", "key": {"[1]": {"molecular_target": "T1, peroxisome proliferator-activated receptor-γ (PPAR-γ) (Homo sapiens, UniProt P37231)", "T1 sequence (P37231 1-505)": "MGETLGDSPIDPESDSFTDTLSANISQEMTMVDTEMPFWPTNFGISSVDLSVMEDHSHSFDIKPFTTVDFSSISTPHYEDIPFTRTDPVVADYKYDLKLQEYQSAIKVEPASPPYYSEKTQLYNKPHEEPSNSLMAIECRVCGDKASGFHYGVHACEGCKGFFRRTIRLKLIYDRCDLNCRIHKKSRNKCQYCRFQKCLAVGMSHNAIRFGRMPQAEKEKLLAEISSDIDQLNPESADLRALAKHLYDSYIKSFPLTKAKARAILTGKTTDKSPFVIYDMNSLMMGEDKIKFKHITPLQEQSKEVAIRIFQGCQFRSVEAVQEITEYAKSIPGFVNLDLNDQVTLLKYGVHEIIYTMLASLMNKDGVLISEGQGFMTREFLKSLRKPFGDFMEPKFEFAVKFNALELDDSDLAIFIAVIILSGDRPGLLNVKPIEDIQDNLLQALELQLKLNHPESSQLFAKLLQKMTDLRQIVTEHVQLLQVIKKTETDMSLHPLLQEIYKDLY", "conditions": "Ricote et al.; Jiang et al.; cited from earlier work"}, "IKKβ [2]": {"molecular_target": "T2, IKKβ (Homo sapiens, UniProt O14920)", "T2 sequence (O14920 1-756)": "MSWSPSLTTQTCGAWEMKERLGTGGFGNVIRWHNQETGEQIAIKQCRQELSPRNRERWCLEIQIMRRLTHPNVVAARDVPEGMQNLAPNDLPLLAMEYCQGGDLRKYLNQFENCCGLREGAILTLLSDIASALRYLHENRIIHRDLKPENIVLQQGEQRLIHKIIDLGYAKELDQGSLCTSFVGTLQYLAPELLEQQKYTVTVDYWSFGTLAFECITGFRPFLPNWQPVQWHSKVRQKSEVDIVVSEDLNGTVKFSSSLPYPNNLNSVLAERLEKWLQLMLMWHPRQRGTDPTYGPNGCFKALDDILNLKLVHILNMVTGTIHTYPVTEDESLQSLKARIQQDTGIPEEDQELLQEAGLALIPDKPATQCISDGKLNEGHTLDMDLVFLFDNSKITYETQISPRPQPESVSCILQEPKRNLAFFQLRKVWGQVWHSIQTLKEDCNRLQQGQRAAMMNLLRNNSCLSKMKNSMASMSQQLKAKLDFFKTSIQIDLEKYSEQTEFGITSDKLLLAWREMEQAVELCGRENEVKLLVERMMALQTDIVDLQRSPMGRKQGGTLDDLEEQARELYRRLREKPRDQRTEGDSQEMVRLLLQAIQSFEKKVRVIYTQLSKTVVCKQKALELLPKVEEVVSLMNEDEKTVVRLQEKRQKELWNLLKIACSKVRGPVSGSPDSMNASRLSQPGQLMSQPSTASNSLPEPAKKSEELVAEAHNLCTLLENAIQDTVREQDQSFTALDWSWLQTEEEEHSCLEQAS", "assay": "Recombinant wild-type IKKβ (Sf9) kinase activity", "assay_type": "biochemical", "design": "FLAG; made in house; host or cells: Sf9 (baculovirus)", "method": "In addition, recombinant IKKβ was expressed in Sf9 cells and purified as described (Zandi et al., supra). AA, PGs, LTB4, and T×B2 were added to washed imnmunoprecipitates of recombinant IKKβ in kinase buffer to a final volume of 500 μl. After 1.5 hours at 4° C., the immunoprecipitates were washed and the kinase activity determined. Western blot analysis was also performed as known in the art (See e.g., Rossi et al., supra).\nIn other experiments, purified recombinant IKKβ immobilized on beads with 15dPGJ2 or diluent were preincubated and extensively rinsed with kinase buffer lacking the inhibitor."}, "IKKβ [3]": {"molecular_target": "T2, IKKβ", "assay": "HA-tagged IKKβ overexpressed in COS cells: kinase activity and expression", "assay_type": "cell-based", "method": "Cells used in the experiments described herein were cultured in either RPMI 1640 (Jurkat cells) or DMEM (HeLa and COS cells), supplemented with 10% FBS and antibiotics. Cells were stimulated with either 25 ng/ml TPA, 20 ng/ml recombinant TNFα, or 10 ng/ml interleukin 1β (Sigma). PGA1, 15dPGJ2, T×B2, LTB4, AA and other PGs (Cayman) dissolved in ethanol were used as well, as known in the art (See e.g., Rossi et al., 94:746-750 [1997]). Controls received equal amounts of ethanol. Transfections were performed using Lipofectamine Plus (GIBCO) for HeLa and COS cells and DEAE-dextran (Sigma) for Jurkat cells. Xpress-tagged NIK, Xpress-tagged MEKK1, HA-tagged IKKα, and HA-tagged IKKβ were also used (See e.g., Zandi et al., Science 281:1360-1363 [1998]; and Delhase et al., Science 284:309-313 [1999]). COX2 and cPLA2 expression vectors were obtained from Dr. L. Feng (See also, Hirose et al., J. Am. Soc. Nephrol., 9:408-416 [1998]). PGD synthase was cloned from HT29 colon carcinoma cell line cDNA by PCR and subcloned into a pCDNA3 vector. […]\nCell lysates were incubated with anti-IKKα (Pharmingen), anti-HA (12CA5; Pharmingen), anti-JNK1 (333.8; Pharmingen), or anti-p38 (New England Biolabs) for 2 hours. […] Endogenous IKK, HA-tagged IKKα, endogenous JNK1, and p38 activities were determined with GST-1κBα(1-54), GST-c-Jun(1-79), and GST-ATF2 as substrates."}}, "note": "“Also recorded” adds a separate entry of the source."}
{"compound": "CCCCC/C=C/C=C1/C(=O)C=C[C@@H]1C/C=C\\CCCC(=O)O", "note": "[15dPGJ2, 15-deoxy-Δ^12-14-PGJ2]", "values": [{"measurement": "activation of PPAR-γ", "setting": "[1]", "value": "activate"}, {"measurement": "effect on recombinant wild-type IKKβ", "setting": "IKKβ [2]; FIG. 6D", "value": "inhibitory"}, {"measurement": "inhibition after extensive washing (reversibility)", "setting": "IKKβ [2]; recombinant IKKβ on beads pre-incubated with inhibitor, rinsed with kinase buffer", "value": "remained inhibited"}]}
{"compound": "CCCCC[C@H](O)/C=C/[C@H]1C=CC(=O)C1CCCCCCC(=O)O", "note": "(some centres unmarked) [PGA1, prostaglandin A1]", "values": [{"measurement": "effect on IKKβ expression (immunoblotting)", "setting": "IKKβ [3]; COS cells overexpressing HA-tagged IKKβ", "value": "did not affect"}, {"measurement": "effect on kinase activity of overexpressed HA-tagged IKKβ", "setting": "IKKβ [3]; COS cells, PGA1 15 or 30 μM, FIG. 2C", "value": "strongly inhibited; also recorded: inhibits"}]}
